Source: ChEMBL document CHEMBL3870327, “Thioxylated cyclosporin A for studying protein-drug interactions” (Bioorg Med Chem Lett, 2016)
Active and inactive are the calls of the source. No cut-off for these calls is given here. *1 amine or outer side, *2 acyl side, *3 side chain or, on linkers, in order; H or OH if unused. Where a SMILES comes first, the peptide text is derived from it. [ ]: non-standard residue; d: D form. X1 = CC(C)C[C@@H](C(=S)N[C@H](C(=O)[*:2])C(C)C)N(C)[*:1]; AlaΨ(CSNH)dAla = C[C@H](N[*:1])C(=S)N[C@H](C)C(=O)[*:2]; MeBmt = C/C=C/C[C@@H](C)[C@@H](O)[C@H](NC)C(=O)O; NMeL = CN[C@@H](CC(C)C)C(=O)O; NMeV = CN[C@H](C(=O)O)C(C)C; Abu = CC[C@H](N)C(=O)O; Sar = CNCC(=O)O

What was measured:
[1] = target: T1, Peptidyl-prolyl cis-trans isomerase A (Homo sapiens, UniProt P62937); test: Binding affinity to recombinant His-tagged Cyp18 (unknown origin) expressed in Escherichia coli BL21(DE3) assessed as inhibition of recombinant human His6-tagged calcineurin alpha phosphatase actvity using RII phosphopeptide as substrate by measuring amount of free phosphate at 10 uM preincubated for 20 mins followed by substrate addition measured after 30 mins in presence of human calmodulin by malachite green dye-based spectrophotometry relative to control
Target sequence in this assay (P62937 whole entry, looked up): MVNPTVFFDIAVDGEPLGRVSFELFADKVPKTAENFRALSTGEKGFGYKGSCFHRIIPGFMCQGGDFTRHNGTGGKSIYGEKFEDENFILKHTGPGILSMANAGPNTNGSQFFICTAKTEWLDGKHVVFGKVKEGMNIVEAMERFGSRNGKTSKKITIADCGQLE

[2] = target: T1, Peptidyl-prolyl cis-trans isomerase A; test: Binding affinity to recombinant His-tagged Cyp18 (unknown origin) expressed in Escherichia coli BL21(DE3) assessed as blue shift by UV absorbance method
Target sequence in this assay (P62937 whole entry, looked up): as above

[3] = target: T1, Peptidyl-prolyl cis-trans isomerase A; test: Binding affinity to recombinant His-tagged Cyp18 (unknown origin) expressed in Escherichia coli BL21(DE3) by fluorescence analysis
Target sequence in this assay (P62937 whole entry, looked up): as above

[4] = target: T1, Peptidyl-prolyl cis-trans isomerase A; test: Inhibition of recombinant His-tagged Cyp18 (unknown origin) expressed in Escherichia coli BL21(DE3) up to 1000 nM
Target sequence in this assay (P62937 whole entry, looked up): as above

[5] = target: T1, Peptidyl-prolyl cis-trans isomerase A; test: Binding affinity to Cyp18 (unknown origin) by fluorescence assay
Target sequence in this assay (P62937 whole entry): as the sequence (P62937 whole entry, looked up) above

[6] = target: T1, Peptidyl-prolyl cis-trans isomerase A; test: Binding affinity to recombinant His-tagged Cyp18 (unknown origin) expressed in Escherichia coli BL21(DE3) assessed as dissociation rate constant in presence of 20-fold excess of cyclosporin A by fluorescence assay
Target sequence in this assay (P62937 whole entry, looked up): as above

[7] = target: T1, Peptidyl-prolyl cis-trans isomerase A; test: Binding affinity to Cyp18 (unknown origin) assessed as association rate constant of fast phase by stopped flow method
Target sequence in this assay (P62937 whole entry, looked up): as above

Row | Compound | Activity [1] | Activity [2] | Activity [3] | inhibition [4] | Kd [5] | K [6] | K [7]
1 | C/C=C/C[C@@H](C)[C@@H](O)[C@H]1C(=O)N[C@@H](CC)C(=O)N(C)CC(=O)N(C)[C@@H](CC(C)C)C(=S)N[C@@H](C(C)C)C(=O)N(C)[C@@H](CC(C)C)C(=O)N[C@@H](C)C(=O)N[C@H](C)C(=O)N(C)[C@@H](CC(C)C)C(=O)N(C)[C@@H](CC(C)C)C(=O)N(C)[C@@H](C(C)C)C(=O)N1C | Active | Active | Active | Active |  |  | 
2 | C/C=C/C[C@@H](C)[C@@H](O)[C@H]1C(=O)N[C@@H](CC)C(=O)N(C)CC(=O)N(C)[C@@H](CC(C)C)C(=O)N[C@@H](C(C)C)C(=O)N(C)[C@@H](CC(C)C)C(=O)N[C@@H](C)C(=S)N[C@H](C)C(=O)N(C)[C@@H](CC(C)C)C(=O)N(C)[C@@H](CC(C)C)C(=O)N(C)[C@@H](C(C)C)C(=O)N1C (HELM PEPTIDE1{[Abu].[Sar].[meL].V.[meL].[C[C@H](N[*:1])C(=S)N[C@H](C)C(=O)[*:2]].[meL].[meL].[meV].[C/C=C/C[C@@H](C)[C@@H](O)[C@@H](C(=O)[*:2])N(C)[*:1]]}$PEPTIDE1,PEPTIDE1,1:R1-10:R2$$$V2.0) | Active | Active | Active | Active | 8.2 nM | 6.32 ×10⁻² /s | 8.34 ×10⁶ /M/s
3 | C/C=C/C[C@@H](C)[C@@H](O)[C@H]1C(=O)N[C@@H](CC)C(=O)N(C)CC(=O)N(C)[C@@H](CC(C)C)C(=S)N[C@@H](C(C)C)C(=O)N(C)[C@@H](CC(C)C)C(=O)N[C@@H](C)C(=S)N[C@H](C)C(=O)N(C)[C@@H](CC(C)C)C(=O)N(C)[C@@H](CC(C)C)C(=O)N(C)[C@@H](C(C)C)C(=O)N1C (cyclo([Abu][Sar][X1][NMeL][AlaΨ(CSNH)dAla][NMeL][NMeL][NMeV][MeBmt])) | Active | Active | Active | Active |  |  | 
